PMC11855827, “High-Throughput Screening of Five Compound Libraries for Anthelmintic Activity and Toxicity Leads to the Discovery of Two Flavonoid Compounds” (International Journal of Molecular Sciences, 2025)
Where “and” joins values, the source holds several entries; their conditions need not be identical. Identical values can stand only once. Like-named read-outs stand apart in the source and are kept apart here.

System: C. elegans
[1] = Table S2, C. elegans SS assay, 110 μM, 0 h, averages of 4 data points
[2] = Table S2, C. elegans SS assay, 110 μM, 24 h, averages of 4 data points

| SMILES | Percentage of motility inhibition 0 h [1] | Percentage of motility inhibition 24 h [2] | Percentage of motility inhibition 0 h (110 µM) | Percentage of motility inhibition 24 h (110 µM) |
| --- | --- | --- | --- | --- |
| O=C1C[C@@H](c2ccc(O)c(O)c2)Oc2cc(O[C@@H]3O[C@H](CO)[C@@H](O)[C@H](O)[C@H]3O)cc(O)c21 [Eriodictyol‐7‐O‐glucoside] | 11% | 4% | – | – |
| C[C@@H](O)[C@H]1C(=O)N2C(C(=O)[O-])=C(S[C@@H]3CN[C@H](C(=O)Nc4cccc(C(=O)O)c4)C3)[C@H](C)[C@H]12.[Na+] [Ertapenem sodium] | 0% | 0% | – | – |
| COC(=O)[C@@]1(C)CC[C@]2(C(=O)O)CC[C@]3(C)C(=CC[C@@H]4[C@@]5(C)C[C@H](O)[C@H](O[C@@H]6OC[C@@H](O[C@@H]7O[C@H](CO)[C@@H](O)[C@H](O)[C@H]7O)[C@H](O)[C@H]6O)[C@@](C)(CO)[C@@H]5CC[C@]43C)[C@@H]2C1 [Esculentoside A] | 17% | 3% | – | – |
| COC(=O)[C@]1(C)CC[C@]2(C(=O)O[C@@H]3O[C@H](CO)[C@@H](O)[C@H](O)[C@H]3O)CC[C@]3(C)C(=CC[C@@H]4[C@@]5(C)C[C@H](O)[C@H](O[C@@H]6OC[C@@H](O[C@@H]7O[C@H](CO)[C@@H](O)[C@H](O)[C@H]7O)[C@H](O)[C@H]6O)[C@@](C)(CO)C5CC[C@]43C)[C@H]2C1 (some centres unmarked) [Esculentoside H] | 0% | 17% | – | – |
| CC[C@@H](CO)NCCN[C@@H](CC)CO.Cl.Cl [Ethambutol (dihydrochloride)] | 26% | 6% | – | – |
| CCOC1c2c(ccc3c2OCO3)-c2ccc3cc4c(cc3c2N1C)OCO4 (centres unmarked) [Ethoxysanguinarine] | 0% | 31% | – | – |
| C=C1C(=O)O[C@@H]2/C=C(\C)[C@@H](OC(C)=O)C/C=C(\COC(C)=O)C[C@@H](OC(=O)/C(C)=C/CO)[C@@H]12 [Eupalinolide A] | – | – | 11% | 38% |
| C=C1C(=O)O[C@@H]2/C=C(\C)[C@@H](OC(C)=O)C/C=C(\COC(C)=O)C[C@@H](OC(=O)/C(C)=C/CO)[C@@H]12 [Eupalinolide B] | – | – | 0% | 0% |
| C=C1C(=O)O[C@@H]2/C=C(/C)C(OC(C)=O)C/C=C(/C=O)CC(OC(=O)/C(C)=C/CO)[C@@H]12 (some centres unmarked) [Eupalinolide O] | 1% | 9% | – | – |
| C=C1[C@H](OC(=O)c2ccccc2)C[C@H]2[C@@H](/C=C(\C)C(=O)[C@@]3(OC(C)=O)C[C@H](C)[C@H](OC(=O)c4ccccc4)[C@@H]3[C@H]1OC(C)=O)C2(C)C [Euphorbia Factor L2] | 27% | 21% | – | – |
| CC(=O)OC/C1=C\[C@H]2[C@@H](OC(=O)/C=C/c3ccccc3)[C@@H](C)C[C@]2(OC(C)=O)C(=O)/C(C)=C/[C@@H]2[C@H](CC1)C2(C)C [Euphorbia factor L7a] | 21% | 23% | – | – |
| CC(=O)OC/C1=C/C[C@H]2[C@@H](/C=C(\C)C(=O)[C@@]3(OC(C)=O)C[C@H](C)[C@H](OC(=O)c4ccccc4)[C@@H]3[C@H]1OC(C)=O)C2(C)C [Euphorbia factor L7b] | 14% | 37% | – | – |
| Cl.Cl.O=C(C[C@H]1NCCC[C@@H]1O)Cn1cnc2ccccc2c1=O [Febrifugine (dihydrochloride)] | 30% | 2% | – | – |
| Clc1ccc(C(Cn2ccnc2)OCc2ccc(Sc3ccccc3)cc2)c(Cl)c1.O=[N+]([O-])O (centres unmarked) [Fenticonazole (Nitrate)] | 45% | 13% | – | – |
| C=CC1=C(C)c2cc3[n-]c(cc4[n-]c(cc5nc(cc1n2)C(C)=C5C=C)c(C)c4CCC(=O)O)c(CCC(=O)O)c3C.[Fe+2] [Ferroheme] | 0% | 0% | – | – |
| COc1cc(/C=C/C(=O)[O-])ccc1O.[Na+] [Ferulic acid (sodium)] | 10% | 0% | – | – |
| COc1cc(/C=C/C(=O)O)ccc1O [Ferulic acid] | 58% | 8% | – | – |
| CCN1C[C@@]2(COC)[C@H]3[C@@H](OC)[C@H]4[C@@H]1[C@]3([C@@H](OC)C[C@H]2OC(C)=O)[C@@H]1C[C@@]2(O)[C@H](OC(=O)c3ccccc3)[C@@H]1[C@]4(OC(C)=O)[C@@H](O)[C@@H]2OC [Flaconitine] | 13% and 5% | – | – | – |
| C[C@@H]1O[C@@H]1P(=O)([O-])[O-].[Ca+2] [Fosfomycin (calcium)] | 4% | 0% | – | – |
| C/C1=C\C(=O)c2c(C)coc2C/C(C)=C/CC1 [Furanodienone] | 0% | 0% | – | – |

| SMILES | Percentage of motility inhibition 0 h [1] | Percentage of motility inhibition 24 h [2] | Percentage of motility inhibition 0 h (110 µM) | Percentage of motility inhibition 24 h (110 µM) |
| --- | --- | --- | --- | --- |
| CC(=O)O[C@H]1C[C@@]2(C)[C@@H](C[C@@H](O)[C@H]3[C@@]4(C)CC[C@@H](O)[C@@H](C)[C@@H]4CC[C@@]32C)/C1=C(\CCC=C(C)C)C(=O)[O-].[Na+] [Fusidic acid (sodium salt)] | – | 35% and 44% | – | – |
| C/C=C1/[C@H](O[C@@H]2O[C@H](CO)[C@@H](O)[C@H](O)[C@H]2O)OC=C(C(=O)OC)[C@H]1CC(=O)OC[C@H]1O[C@@H](OCCc2ccc(OC(=O)C[C@@H]3C(C(=O)OC)=CO[C@@H](O[C@@H]4O[C@H](CO)[C@@H](O)[C@H](O)[C@H]4O)/C3=C/C)cc2)[C@H](O)[C@@H](O)[C@@H]1O [GL3] | 0% | 18% | – | – |
| CC(C)OC(=O)[C@H](C)N[P@](=O)(CO[C@H](C)Cn1cnc2c(N)ncnc21)Oc1ccccc1.O=C(O)/C=C/C(=O)O [GS‐7340 (fumarate)] | 20% | 8% | – | – |
| CC(C)OC(=O)[C@H](C)N[P@](=O)(CO[C@H](C)Cn1cnc2c(N)ncnc21)Oc1ccccc1.CC(C)OC(=O)[C@H](C)N[P@](=O)(CO[C@H](C)Cn1cnc2c(N)ncnc21)Oc1ccccc1.O=C(O)/C=C/C(=O)O [GS‐7340 (hemifumarate)] | 21% | 0% | – | – |
| Br.COc1ccc2c3c1O[C@H]1C[C@@H](O)C=C[C@@]31CCN(C)C2 [Galanthamine (hydrobromide)] | 2% and 0% | – | – | – |
| COc1ccc2c3c1O[C@H]1C[C@@H](O)C=C[C@@]31CC[N+](C)([O-])C2 (some centres unmarked) [Galanthamine N‐Oxide] | 3% | 4% | – | – |
| CC(C)=CCN=C(N)N.Cl [Galegine (hydrochloride)] | 0% | 0% | – | – |
| O.O=C(O)c1cc(O)c(O)c(O)c1 [Gallic acid (hydrate)] | 6% | 7% | – | – |
| CCCN1C[C@H](C)[C@@H](O)[C@](C)(O)[C@@H](CC)OC(=O)[C@H](C)[C@@H](O[C@H]2C[C@@](C)(OC)[C@@H](O)[C@H](C)O2)[C@H](C)[C@@H](O[C@@H]2O[C@H](C)C[C@H](N(C)C)[C@H]2O)[C@](C)(O)C[C@H]1C [Gamithromycin] | 37% | 44% | – | – |
| C[C@H](CC(=O)C[C@](C)(O)[C@@H]1CC(=O)[C@@]2(C)C3=C(C(=O)C[C@]12C)[C@@]1(C)CC[C@H](O)C(C)(C)[C@@H]1C[C@@H]3O)C(=O)O [Ganoderic acid I] | 0% | 11% | – | – |
| CC(CC(=O)CC(C)(O)C1CC(=O)C2(C)C3=C(C(=O)CC12C)C1(C)CCC(=O)C(C)(C)C1CC3O)C(=O)O (centres unmarked) [Ganoderic acid N] | 0% | 0% | – | – |
| CC(CC(=O)CC(C)[C@H]1CC(=O)C2(C)C3=C(C(=O)C(=O)C12C)C1(C)CCC(=O)C(C)(C)[C@@H]1CC3=O)C(=O)O (some centres unmarked) [Ganosporeric acid A] | 36% | 9% | – | – |
| CCNCc1nc2c(N)nc3ccccc3c2n1CC(C)(C)O.O=C(O)C(F)(F)F [Gardiquimod trifluoroacetate] | 33% | 0% | – | – |
| CS(=O)(=O)O.C[C@H]1NCc2cc(-c3ccc4c(=O)c(C(=O)O)cn(C5CC5)c4c3OC(F)F)ccc21.O [Garenoxacin (Mesylate hydrate)] | 61% | 25% | – | – |
| C/C=C1/CN2CCc3c([nH]c4ccccc34)[C@@H]2C[C@@H]1/C(=C/OC)C(=O)OC [Geissoschizine methyl ether] | 0% | 19% | – | – |
| COC(=O)C1=CO[C@@H](O[C@@H]2O[C@H](CO[C@@H]3O[C@H](CO)[C@@H](O)[C@H](O)[C@H]3O)[C@@H](O)[C@H](O)[C@H]2O)[C@@H]2C(CO)=CC[C@H]12 [Genipin 1-β-D-gentiobioside] | 0% | 17% | – | – |
| CC(C)=C1C/C=C(\C)CC/C=C(\C)CC1=O [Germacrone] | 12% | 9% | – | – |
| CC1=C2[C@@H](OC1=O)[C@H](O)[C@]13[C@H]4C[C@@H](C(C)(C)C)[C@]15[C@@H](OC(=O)[C@@H]5O)O[C@@]23C(=O)O4 [Ginkgolide K] | 0% | 2% | – | – |
| CC(C)=CCC[C@](C)(O[C@@H]1O[C@H](CO)[C@@H](O)[C@H](O)[C@H]1O)[C@H]1CC[C@]2(C)[C@@H]1[C@H](O)C[C@@H]1[C@@]3(C)CC[C@H](O)C(C)(C)[C@@H]3CC[C@]12C [Ginsenoside C-K] | 4% | 22% | – | – |
| CC(C)=CCC[C@](C)(O[C@@H]1O[C@H](CO[C@@H]2OC[C@H](O[C@@H]3OC[C@@H](O)[C@H](O)[C@H]3O)[C@H](O)[C@H]2O)[C@@H](O)[C@H](O)[C@H]1O)[C@H]1CC[C@]2(C)[C@@H]1[C@H](O)C[C@@H]1[C@@]3(C)CC[C@H](O[C@@H]4O[C@H](CO)[C@@H](O)[C@H](O)[C@H]4O[C@@H]4O[C@H](CO)[C@@H](O)[C@H](O)[C@H]4O)C(C)(C)[C@@H]3CC[C@]12C [Ginsenoside Ra1] | 0% | 0% | – | – |
